Experiments:
A549 [1] = experiment: Induction of cell cycle arrest in human A549 cells assessed as accumulation at S phase at 10 uM after 48 hrs by flow cytometric analysis (reference value: 12%); format: functional
A549 [2] = experiment: Cytotoxicity against human A549 cells assessed as reduction in cell viability by MTT assay; format: functional, cell-based
A549 [3] = experiment: Induction of cell cycle arrest in human A549 cells assessed as accumulation at G1 phase at 10 uM after 48 hrs by flow cytometric analysis (reference value: 57.8%); format: functional
A549 [4] = experiment: Induction of cell cycle arrest in human A549 cells assessed as accumulation at G2/M phase at 10 uM after 48 hrs by flow cytometric analysis (reference value: 25.4%); format: functional
A549 [5] = experiment: Induction of cell cycle arrest in human A549 cells assessed as accumulation at G1 phase at 10 uM after 24 hrs by flow cytometric analysis (reference value: 53.1%); format: functional
A549 [6] = experiment: Induction of cell cycle arrest in human A549 cells assessed as accumulation at sub G1 phase at 10 uM after 48 hrs by flow cytometric analysis (reference value: 4.9%); format: functional
A549 [7] = experiment: Induction of cell cycle arrest in human A549 cells assessed as accumulation at sub G1 phase at 10 uM after 24 hrs by flow cytometric analysis (reference value: 7.8%); format: functional
A549 [8] = experiment: Induction of cell cycle arrest in human A549 cells assessed as accumulation at G2/M phase at 10 uM after 24 hrs by flow cytometric analysis (reference value: 21.6%); format: functional
A549 [9] = experiment: Induction of cell cycle arrest in human A549 cells assessed as accumulation at S phase at 10 uM after 24 hrs by flow cytometric analysis (reference value: 17.6%); format: functional
[10] = molecular target: Voltage-dependent T-type calcium channel subunit alpha-1G (Homo sapiens, UniProt O43497); experiment: Inhibition of T type calcium channel Cav3.1 (unknown origin) expressed in HEK293T cells by patch clamp method relative to control; format: cell-based
Voltage-dependent T-type calcium channel subunit alpha-1G, sequence (O43497 whole entry): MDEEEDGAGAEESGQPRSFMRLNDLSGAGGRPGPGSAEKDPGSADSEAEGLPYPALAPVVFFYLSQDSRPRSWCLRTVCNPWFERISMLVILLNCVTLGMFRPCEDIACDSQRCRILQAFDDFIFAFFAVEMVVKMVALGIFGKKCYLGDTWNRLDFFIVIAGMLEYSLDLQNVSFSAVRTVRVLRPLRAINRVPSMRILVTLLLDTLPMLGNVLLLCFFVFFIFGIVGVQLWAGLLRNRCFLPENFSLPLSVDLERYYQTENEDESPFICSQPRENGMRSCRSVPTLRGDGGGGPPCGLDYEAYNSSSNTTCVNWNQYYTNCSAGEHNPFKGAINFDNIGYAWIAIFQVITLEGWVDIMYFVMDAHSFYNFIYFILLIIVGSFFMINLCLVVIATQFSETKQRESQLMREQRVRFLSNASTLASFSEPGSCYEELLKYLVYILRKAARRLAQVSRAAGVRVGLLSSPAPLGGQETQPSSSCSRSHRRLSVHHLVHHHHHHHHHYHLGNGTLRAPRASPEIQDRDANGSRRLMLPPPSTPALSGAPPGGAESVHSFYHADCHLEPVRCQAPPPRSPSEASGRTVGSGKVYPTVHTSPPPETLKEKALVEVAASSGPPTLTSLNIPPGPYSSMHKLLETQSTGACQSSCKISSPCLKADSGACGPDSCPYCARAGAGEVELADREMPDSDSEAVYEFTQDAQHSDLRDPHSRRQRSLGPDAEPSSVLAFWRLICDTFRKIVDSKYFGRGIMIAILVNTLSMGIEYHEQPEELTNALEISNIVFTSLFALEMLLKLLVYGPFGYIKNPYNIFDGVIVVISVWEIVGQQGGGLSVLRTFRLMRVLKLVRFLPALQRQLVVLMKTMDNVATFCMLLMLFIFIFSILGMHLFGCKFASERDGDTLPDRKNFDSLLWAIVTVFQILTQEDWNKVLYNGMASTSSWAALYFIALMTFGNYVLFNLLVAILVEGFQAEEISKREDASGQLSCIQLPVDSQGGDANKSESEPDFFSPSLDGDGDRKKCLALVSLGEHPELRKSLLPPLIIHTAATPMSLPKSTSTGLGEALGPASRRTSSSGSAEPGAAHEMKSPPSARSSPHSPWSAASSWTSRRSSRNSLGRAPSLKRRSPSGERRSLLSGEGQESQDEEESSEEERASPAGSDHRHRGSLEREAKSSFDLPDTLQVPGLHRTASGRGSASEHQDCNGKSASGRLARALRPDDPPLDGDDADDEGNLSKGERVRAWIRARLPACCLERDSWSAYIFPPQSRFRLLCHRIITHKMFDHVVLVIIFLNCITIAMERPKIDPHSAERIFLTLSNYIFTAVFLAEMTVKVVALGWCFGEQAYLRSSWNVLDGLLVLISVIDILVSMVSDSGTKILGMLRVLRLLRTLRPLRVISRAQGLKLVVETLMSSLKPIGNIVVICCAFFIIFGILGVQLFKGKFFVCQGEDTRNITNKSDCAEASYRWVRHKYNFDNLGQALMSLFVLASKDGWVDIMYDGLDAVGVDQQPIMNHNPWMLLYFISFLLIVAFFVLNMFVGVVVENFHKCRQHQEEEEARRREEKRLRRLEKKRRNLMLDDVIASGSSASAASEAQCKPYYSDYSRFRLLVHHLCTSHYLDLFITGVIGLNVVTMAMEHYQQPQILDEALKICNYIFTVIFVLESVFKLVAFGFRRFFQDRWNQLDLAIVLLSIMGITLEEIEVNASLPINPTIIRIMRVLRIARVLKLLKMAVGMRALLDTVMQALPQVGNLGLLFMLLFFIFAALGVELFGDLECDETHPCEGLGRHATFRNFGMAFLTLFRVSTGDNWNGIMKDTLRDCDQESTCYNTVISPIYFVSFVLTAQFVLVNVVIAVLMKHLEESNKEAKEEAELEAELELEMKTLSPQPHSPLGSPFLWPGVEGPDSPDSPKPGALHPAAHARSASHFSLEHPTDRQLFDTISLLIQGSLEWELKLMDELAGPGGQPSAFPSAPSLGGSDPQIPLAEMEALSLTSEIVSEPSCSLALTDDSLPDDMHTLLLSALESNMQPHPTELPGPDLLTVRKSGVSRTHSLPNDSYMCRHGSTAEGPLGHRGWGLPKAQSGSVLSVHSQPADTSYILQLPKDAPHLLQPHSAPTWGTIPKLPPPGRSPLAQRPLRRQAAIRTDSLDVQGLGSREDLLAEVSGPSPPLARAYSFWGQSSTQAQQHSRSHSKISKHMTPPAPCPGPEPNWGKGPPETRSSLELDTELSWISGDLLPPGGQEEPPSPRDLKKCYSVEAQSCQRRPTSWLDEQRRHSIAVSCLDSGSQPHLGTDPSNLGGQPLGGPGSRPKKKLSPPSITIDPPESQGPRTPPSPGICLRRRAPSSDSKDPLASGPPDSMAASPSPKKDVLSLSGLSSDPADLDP

A549 [11] = experiment: Induction of cell cycle arrest in human A549 cells assessed as accumulation at G1 phase at 5 uM after 48 hrs by flow cytometric analysis (reference value: 57.8 to 65.5%); format: functional
A549 [12] = experiment: Induction of cell cycle arrest in human A549 cells assessed as accumulation at G2/M phase at 5 uM after 48 hrs by flow cytometric analysis (reference value: 22.1 to 25.4 %); format: functional
A549 [13] = experiment: Induction of cell cycle arrest in human A549 cells assessed as accumulation at sub G1 phase at 5 uM after 24 hrs by flow cytometric analysis (reference value: 7.8%); format: functional
A549 [14] = experiment: Induction of cell cycle arrest in human A549 cells assessed as accumulation at sub G1 phase at 5 uM after 48 hrs by flow cytometric analysis (reference value: 1.9 to 4.9%); format: functional
A549 [15] = experiment: Induction of cell cycle arrest in human A549 cells assessed as accumulation at G1 phase at 5 uM after 24 hrs by flow cytometric analysis (reference value: 53.1%); format: functional
A549 [16] = experiment: Induction of cell cycle arrest in human A549 cells assessed as accumulation at S phase at 5 uM after 48 hrs by flow cytometric analysis (reference value: 10.4 to 12%); format: functional
A549 [17] = experiment: Induction of cell cycle arrest in human A549 cells assessed as accumulation at S phase at 5 uM after 24 hrs by flow cytometric analysis (reference value: 17.6%); format: functional
A549 [18] = experiment: Induction of cell cycle arrest in human A549 cells assessed as accumulation at G2/M phase at 5 uM after 24 hrs by flow cytometric analysis (reference value: 21.6%); format: functional
[19] = Protein binding in human plasma at 10 uM after 4 hrs; format: ADME, cell-free; details: read-out: PPB (converted)
[20] = Protein binding in rat plasma at 10 uM after 4 hrs; format: ADME, cell-free; details: read-out: PPB (converted)
[21] = Metabolic stability in rat plasma assessed as parent compound remaining at 10 uM measured after 2 hrs; format: ADME, cell-free; details: read-out: Stabilty
[22] = Metabolic stability in human plasma assessed as parent compound remaining at 10 uM measured after 2 hrs; format: ADME, cell-free; details: read-out: Stabilty

**Q.** Which Activity (A549 [1]) does the source give for `COCC(=O)O[C@]1(CCN(C)CCCc2nc3ccccc3[nH]2)CCc2cc(F)ccc2[C@@H]1C(C)C` [MIBEFRADIL] here?
**A.** 12%

**Q.** And the IC50 (A549 [2])?
**A.** 31.4 µM

**Q.** What about the Activity (A549 [3]) of the same compound?
**A.** 66.8%

**Q.** What about the Activity (A549 [4]) of the same compound?
**A.** 11.2%

**Q.** And the Activity (A549 [5])?
**A.** 66.1%

**Q.** And the Activity (A549 [6])?
**A.** 10%

**Q.** What about the Activity (A549 [7]) of the same compound?
**A.** 9.6%

**Q.** What about the Activity (A549 [8]) of the same compound?
**A.** 13.4%

**Q.** What about the Activity (A549 [9]) of the same compound?
**A.** 10.9%

**Q.** With `CN(C)CCCCCN(C)C1=Nc2ccccc2C(CC(=O)NCc2ccccc2)N1c1ccc(-c2ccccc2)cc1.Cl.Cl` (stereo not drawn) as the compound, how does the IC50 [10] read?
**A.** 0.51 µM

**Q.** What about the IC50 (A549 [2]) of the same compound?
**A.** 4.7 µM

**Q.** What about the Activity (A549 [11]) of the same compound?
**A.** 1.2%

**Q.** What about the Activity (A549 [12]) of the same compound?
**A.** 0.1%

**Q.** What about the Activity (A549 [13]) of the same compound?
**A.** 55.3%

**Q.** And the Activity (A549 [14])?
**A.** 98.1%

**Q.** And the Activity (A549 [15])?
**A.** 33.6%

**Q.** What about the Activity (A549 [16]) of the same compound?
**A.** 0.6%

**Q.** What about the Activity (A549 [17]) of the same compound?
**A.** 8.8%

**Q.** And the Activity (A549 [18])?
**A.** 2.2%

**Q.** Which fraction unbound at 4 h, 10 µM [19] does the source give for `CC(=O)CC(c1ccccc1)c1c(O)c2ccccc2oc1=O` (stereo not drawn) [WARFARIN] here?
**A.** 0.022

**Q.** And the fraction unbound at 4 h, 10 µM [20]?
**A.** 0.017

**Q.** For `CCN(CC)CCOC(=O)c1ccc(N)cc1` [PROCAINE], which remaining at 2 h, 10 µM [21] is on record?
**A.** > 50%

**Q.** And the remaining at 2 h, 10 µM [22]?
**A.** < 5%

Reference: ChEMBL document CHEMBL4715696, “In vitro synergistic anticancer activity of the combination of T-type calcium channel blocker and chemotherapeutic agent in A549 cells” (Bioorg Med Chem Lett, 2016)
